According to US20160312185A1, “METHOD FOR PRODUCING MEGAKARYOCYTES AND PLATELETS” (FUNDACIÓN PÚBLICA ANDALUZA PROGRESO Y SALUD, priority 2013, published 2016):

System: AND1 PSC
Test: Megakaryocyte precursor analysis (CD34+ and CD34+CD41a+) in EBs by flow cytometry
Assay type: cell-based, human
Conditions: wild-type AND1 PSCs, TSA 10 and 100 nM from start, day 14, vs DMSO
Experimental: The emergence of megakaryocyte precursor cells (CD34+ and CD34+ CD41a^+) during EB differentiation stages on days 10, 14 and 17 of differentiation was evaluated. One third of the EBs growing in a 6-well plate were collected and washed once with PBS. Similarly, to evaluate the effect of Trichostatin A (TSA) on differentiation, the EBs were treated with 10 nM or 100 nM of DMSO or TSA for 14 days. In both cases, the EBs were disassociated with collagenase B and disassociation buffer as described previously. A homogenous cell suspension was obtained after washing the EBs with PBS and being carefully resuspended in […] of PBS with 2% FCS and 2 mM of EDTA until no clumps were observed. The disassociated cells were stained with anti-CD34-PECy7 antibodies (Miltenyi Biotec,
Bergisch Gladbach, Germany) and anti-CD41 a-PE antibodies and 7AAD. Living cells identified by 7AAD exclusion were analyzed using a FACSCanto II flow cytometer.

In the case of `CC(/C=C/C(=O)NO)=C\[C@@H](C)C(=O)c1ccc(N(C)C)cc1` [Trichostatin A], the “CD34+ CD41+ megakaryocyte progenitors” value is reported as “accelerates the emergence of megakaryocyte progenitors” and the “CD34+ CD41+ megakaryocyte progenitors” value (listed as TSA) is reported as “increase”.
